Experimental findings from article PMC9481570, “A small molecule antagonist of SMN disrupts the interaction between SMN and RNAP II” (Nature Communications, 2022) are described below.

Bounds are passed on as bounds.

One assay deals with T1, ZGPAT (Homo sapiens, UniProt Q8N5A5).
T1 construct: ZGPAT (aa 120–271); His (N, cleaved yes); made in house; host or cells: E. coli BL21 (DE3) Codon plus RIL
As to the kind of experiment: ITC binding to ZGPAT. To be noted: Fig. 1c. The source says:
(§1) The coding DNA fragments of following Tudor domains were cloned into pET28-MHL vector: SMN (aa 82–147), UHRF1 (aa 126–285), SMNDC1 (aa 53–130), TDRD3 (aa 554–611), SND1 (aa 650–910), TDRD2 (aa 327–420), FXR1 (aa 2–132), PHF1 (aa 28–87), SGF29 (aa 115–293), JMJD2A (aa 897–1101), 53BP1 (aa 1483–1606), SETDB1 (aa 190–410), LBR (aa 1–67), ZGPAT (aa 120–271). The coding regions of chromodomain of CBX7 (aa 8–62), PWWP domain of DNMT3A (aa 275–417), WD40 repeats of WDR5 (aa 24–334) and CW domain of ZCWPW2 (aa 21–78) were also subcloned into pET28-MHL vector to generate N-terminally His-tagged fusion protein. The MBT repeats of L3MBTL1 (aa 200–522) and L3MBTL2 (aa 170–625) were subcloned into pET28GST-LIC vector to generate N-terminally GST-His-tagged fusion protein. All the plasmids were generated by ligase independent cloning (Vazyme Biotech, C112 or ABclonal Technology, RK21020). […] The molecular weight of all protein samples was measured by mass spectrometry.
(§2) For the ITC measurement, the concentrated proteins were diluted into 20 mM Tris-HCl, pH 7.5, 150 mM NaCl (ITC buffer); the lyophilized compounds were dissolved in the same buffer, and the pH value was adjusted by adding 2 M NaOH or 2 M HCl. […] Compound concentrations were calculated from the mass and the volume of the solvent. […]

In the next assay the target is T2, SMN_N132A (Homo sapiens, UniProt Q16637, N132A).
T2 construct: cloned into pET28-MHL vector: SMN (aa 82–147); His (N, cleaved yes); made in house; host or cells: E. coli BL21 (DE3) Codon plus RIL
T2 sequence (Q16637 82-147 N132A): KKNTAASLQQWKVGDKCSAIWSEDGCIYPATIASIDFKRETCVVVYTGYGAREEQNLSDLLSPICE
The assay can be described thus: ITC binding to SMN Tudor mutant N132A. To be noted: Fig. 3d.
Source text: as §1, §2

In the next assay the target is T3, DNMT3A (PWWP) (Homo sapiens, UniProt Q9Y6K1).
T3 construct: DNMT3A (aa 275–417); His (N, cleaved yes); made in house; host or cells: E. coli BL21 (DE3) Codon plus RIL
T3 sequence (Q9Y6K1 275-417): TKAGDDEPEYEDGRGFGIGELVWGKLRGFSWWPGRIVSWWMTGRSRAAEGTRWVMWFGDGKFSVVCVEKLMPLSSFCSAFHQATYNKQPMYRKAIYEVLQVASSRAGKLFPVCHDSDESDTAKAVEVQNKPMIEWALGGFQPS
As to the kind of experiment: ITC binding to PWWP domain of DNMT3A. The following applies: Fig. 1c.
Source text: as §1, §2

The target of a further assay is T4, CBX7 (CD) (Homo sapiens, UniProt O95931).
T4 construct: CBX7 (aa 8–62); His (N, cleaved yes); made in house; host or cells: E. coli BL21 (DE3) Codon plus RIL
T4 sequence (O95931 8-62): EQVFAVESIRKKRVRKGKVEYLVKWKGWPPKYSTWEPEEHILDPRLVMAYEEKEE
As to the kind of experiment: ITC binding to chromodomain of CBX7. The following applies: Fig. 1c.
Source text: as §1, §2

T1 sequence (Q8N5A5 120-271): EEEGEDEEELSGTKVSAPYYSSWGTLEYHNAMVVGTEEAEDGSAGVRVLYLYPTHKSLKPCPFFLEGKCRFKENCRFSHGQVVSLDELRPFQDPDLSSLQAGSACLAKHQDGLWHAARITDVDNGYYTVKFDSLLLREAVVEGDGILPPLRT

For orientation: Kd means the equilibrium constant for the complex coming apart. The low end stands for higher affinity, the high end for lower affinity. In the case of `Cn1c2c(c(=N)c3c1CCC3)CCC2` [Compound 1, 4-methyl-2,3,4,5,6,7-hexahydrodicyclopenta[b,e]pyridin-8(1H)-imine], the equilibrium dissociation constant (Kd) on ZGPAT is > 244 µM; at SMN_N132A, 70 ± 6 µM; at DNMT3A (PWWP), > 244 µM; at CBX7 (CD), > 244 µM.
